pIC50: −log10 of the molar value. Read-outs that look alike come from different tables or passages of the source.
Experiments:
human TRPM5 = biological target: T1, human TRPM5 (Homo sapiens, UniProt Q9NZQ8); assay: QPatch automated patch clamp on TRPM5-expressing HEK293 cells; assay type: cell-based; conditions: hsTRPM5-expressing HEK293 cells
T1 sequence (Q9NZQ8 1-1165): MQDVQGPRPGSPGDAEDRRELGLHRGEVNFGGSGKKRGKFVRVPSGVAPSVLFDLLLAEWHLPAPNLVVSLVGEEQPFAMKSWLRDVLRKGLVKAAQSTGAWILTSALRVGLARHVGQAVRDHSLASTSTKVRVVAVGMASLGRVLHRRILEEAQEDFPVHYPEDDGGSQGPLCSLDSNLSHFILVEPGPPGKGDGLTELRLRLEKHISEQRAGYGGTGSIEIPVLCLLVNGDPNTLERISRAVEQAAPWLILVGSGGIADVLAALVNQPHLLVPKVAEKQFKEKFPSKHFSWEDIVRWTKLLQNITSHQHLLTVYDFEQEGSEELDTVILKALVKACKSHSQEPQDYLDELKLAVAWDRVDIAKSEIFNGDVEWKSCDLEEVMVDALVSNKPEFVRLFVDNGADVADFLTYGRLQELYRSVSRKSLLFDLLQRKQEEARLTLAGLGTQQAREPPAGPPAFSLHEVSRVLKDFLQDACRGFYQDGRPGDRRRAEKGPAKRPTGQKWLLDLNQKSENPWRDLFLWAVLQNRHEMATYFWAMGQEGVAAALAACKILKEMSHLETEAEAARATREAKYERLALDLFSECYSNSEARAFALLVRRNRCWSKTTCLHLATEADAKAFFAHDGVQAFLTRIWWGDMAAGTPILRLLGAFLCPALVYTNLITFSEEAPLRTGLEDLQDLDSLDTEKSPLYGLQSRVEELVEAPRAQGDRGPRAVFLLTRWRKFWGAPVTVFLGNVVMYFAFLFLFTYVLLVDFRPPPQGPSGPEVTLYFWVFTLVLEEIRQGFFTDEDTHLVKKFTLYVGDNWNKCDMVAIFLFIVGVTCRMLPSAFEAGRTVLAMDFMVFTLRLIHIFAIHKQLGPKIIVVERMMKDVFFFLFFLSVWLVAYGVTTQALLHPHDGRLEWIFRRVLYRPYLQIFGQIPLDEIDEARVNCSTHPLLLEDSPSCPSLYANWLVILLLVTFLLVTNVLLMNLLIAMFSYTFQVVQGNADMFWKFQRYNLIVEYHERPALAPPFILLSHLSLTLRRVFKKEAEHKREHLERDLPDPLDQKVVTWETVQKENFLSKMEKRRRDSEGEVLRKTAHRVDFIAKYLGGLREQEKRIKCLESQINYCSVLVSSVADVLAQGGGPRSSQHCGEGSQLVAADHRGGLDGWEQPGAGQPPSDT
Source text: The counter screening phase involved the inclusion of hsTRPM5-expressing HEK293 cells, as closest homologue, and the parental HEK293 cell line to evaluate selectivity. […] Based on categorization of biological activity, mass spectrometry quality control, and aspects of medicinal chemistry, we prioritized 144 selective hsTRPM4 compounds. These compounds were then subjected to automated patch clamp electrophysiology measurements (QPatch[58]) to evaluate their activity profiles and IC50 values (Figures 1A, S1, and S2).
QPatchHTX, an automated electrophysiology platform, was used in single hole mode. One day before use human TRPM4- or TRPM5-expressing HEK293 cells were seeded in a T75 flask at a density of 53k cells per cm^2 and at passages < 23. For QPatch assays, cells were harvested and re-suspended in SFM (Gibco, 11686029). The extracellular solution was (in mM): CaCl2 (7), MgCl2 (2), KCl (5), HEPES (10), NaCl (70), NMDG (70); pH 7.4 with NaOH. The intracellular solution was (in mM): HEPES (10), NMDG (100), NaCl (50), EGTA (20), MgCl2 (1), CaCl2 (21); pH 7.2 with HCl. After break-in, channels were consistently open and current through the channels could be observed at a voltage ramp from –100 mV to +100 mV over 500 ms. This protocol was repeated every 7 seconds. After saline and vehicle application, the channel was desensitized and residual current was used as baseline. FFA was used as reference compound and applied cumulatively with each concentration incubating at a minimum of 20 voltage protocol runs (140 seconds) with the current after addition of FFA being calculated as full block. […] Each compound was measured at least 3 time independently.

[1] = biological target: potassium channel human Ether-a-go-go Related Gene (hERG) (Homo sapiens, UniProt Q12809); assay: hERG channel inhibition; assay type: cell-based
Source text: We next used in vitro assays to test absorption, distribution, metabolism, excretion and toxicity (ADMET) parameters for selected compounds. We assessed compound absorption using parallel artificial membrane permeability (PAMPA) and Caco-2 cell permeability assays (cut-off criterion >2 × 10^−6 cm s^−1). […] To assess potential off-target activity of our compounds that could be relevant for safety in humans, we conducted comprehensive in vitro pharmacology using the commercially available and widely used SafetyScreen44 interaction panel[60] covering eight protein families.

Hepatocyte clearance = assay type: in vitro ADME; conditions: cryopreserved hepatocytes, 120 min, read-out: Hep. clearance (converted)
Protocol: Cryopreserved hepatocytes were exposed to test Compounds at a concentration of 1 μM for 120 minutes. Samples were collected at various time points, and percent remaining of test compound was determined using mass spectrometry (LC-MS/MS) to calculate hepatic clearance rate (L/h/kg).

[2] = Microsome clearance (mouse); assay type: in vitro ADME; conditions: mouse liver microsomes, 45 min, NADPH
Protocol: (§1) Human or mouse liver microsomes were incubated with the test compound at a concentration of 1 μM for 45 min in the presence of cofactor (NADPH in excess). Samples were collected at various time points, and % remaining of test compound was determined using mass spectrometry (LC-MS/MS) to calculate hepatic clearance rate (L/h/kg).

[3] = Microsome clearance (human); assay type: in vitro ADME; conditions: human liver microsomes, 45 min, NADPH, read-out: Microsomes (h) clearance (converted)
Protocol: as §1

CYP2D6 = biological target: T2, CYP2D6 (Homo sapiens, UniProt P10635); assay: CYP inhibition assay 2D6; assay type: in vitro ADME
T2 construct: purchased BD Gentest
Protocol: The half-maximal inhibitory concentration (IC50) for cytochrome P450 (CYP) enzymes was determined using an in vitro enzyme inhibition assay. Recombinant CYP enzymes or human liver microsomes from BD Gentest, in 0.1 M phosphate buffer pH 7.4, containing native CYP enzymes were incubated with the test compound at various concentrations (1, 3, 10 and 30 μM) and containing 0.5% DMSO and 0.1% BSA final concentrations. 1 mM of NADPH cofactor was added and the reaction was started by a rapid increase of temperature until 37°C.

T2 sequence (P10635 whole entry): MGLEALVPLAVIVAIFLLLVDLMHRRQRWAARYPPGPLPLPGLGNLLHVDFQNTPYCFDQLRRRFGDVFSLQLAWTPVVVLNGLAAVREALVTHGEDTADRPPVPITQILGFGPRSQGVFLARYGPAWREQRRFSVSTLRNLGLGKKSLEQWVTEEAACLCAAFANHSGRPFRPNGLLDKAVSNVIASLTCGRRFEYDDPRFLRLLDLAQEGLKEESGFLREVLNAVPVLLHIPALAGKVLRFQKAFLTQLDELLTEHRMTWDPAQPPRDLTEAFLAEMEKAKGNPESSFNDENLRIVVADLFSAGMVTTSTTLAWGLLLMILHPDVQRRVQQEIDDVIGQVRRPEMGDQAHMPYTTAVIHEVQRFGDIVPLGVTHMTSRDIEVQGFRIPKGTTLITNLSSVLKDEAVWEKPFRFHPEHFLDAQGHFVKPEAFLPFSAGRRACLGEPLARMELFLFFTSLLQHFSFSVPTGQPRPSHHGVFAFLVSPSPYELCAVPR
potassium channel human Ether-a-go-go Related Gene (hERG), sequence (Q12809 whole entry): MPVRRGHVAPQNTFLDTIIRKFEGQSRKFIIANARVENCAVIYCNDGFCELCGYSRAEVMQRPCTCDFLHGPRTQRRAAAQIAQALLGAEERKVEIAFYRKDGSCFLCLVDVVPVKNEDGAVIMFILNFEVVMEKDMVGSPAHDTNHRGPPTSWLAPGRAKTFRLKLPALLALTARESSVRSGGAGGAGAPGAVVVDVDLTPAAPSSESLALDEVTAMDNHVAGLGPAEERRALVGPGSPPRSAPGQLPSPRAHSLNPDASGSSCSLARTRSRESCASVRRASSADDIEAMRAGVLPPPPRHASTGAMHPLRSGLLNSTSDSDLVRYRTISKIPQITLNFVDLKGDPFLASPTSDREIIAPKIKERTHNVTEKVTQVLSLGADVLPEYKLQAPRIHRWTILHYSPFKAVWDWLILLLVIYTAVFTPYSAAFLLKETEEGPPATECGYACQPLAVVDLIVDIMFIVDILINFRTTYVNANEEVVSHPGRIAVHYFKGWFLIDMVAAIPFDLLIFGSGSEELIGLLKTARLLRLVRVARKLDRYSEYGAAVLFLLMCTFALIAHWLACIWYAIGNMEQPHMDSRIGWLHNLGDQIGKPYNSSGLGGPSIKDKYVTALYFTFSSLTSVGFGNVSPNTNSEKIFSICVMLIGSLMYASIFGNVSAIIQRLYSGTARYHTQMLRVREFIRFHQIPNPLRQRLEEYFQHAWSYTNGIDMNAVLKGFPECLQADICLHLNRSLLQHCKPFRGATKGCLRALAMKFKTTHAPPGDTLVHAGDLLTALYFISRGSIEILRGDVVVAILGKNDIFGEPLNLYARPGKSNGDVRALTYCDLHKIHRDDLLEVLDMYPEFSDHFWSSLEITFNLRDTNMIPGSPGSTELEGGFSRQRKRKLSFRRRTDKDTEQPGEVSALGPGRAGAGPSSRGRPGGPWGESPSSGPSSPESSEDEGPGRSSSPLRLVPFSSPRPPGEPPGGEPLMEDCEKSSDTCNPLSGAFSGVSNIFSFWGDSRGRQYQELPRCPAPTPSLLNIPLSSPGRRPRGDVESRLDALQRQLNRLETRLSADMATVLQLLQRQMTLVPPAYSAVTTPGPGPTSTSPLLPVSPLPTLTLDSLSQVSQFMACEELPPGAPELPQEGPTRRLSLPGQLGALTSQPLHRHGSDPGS

SMILES	pIC50 (human TRPM5)	CLint scaled at 1 μM [2] [mL/min/kg]	CLint scaled at 1 μM [3] [mL/min/kg]	pIC50 (CYP2D6; human, pH 7.4)	pIC50 [1]	CLint scaled at 1 μM (Hepatocyte clearance) [mL/min/kg]	pIC50 (CYP2D6)
Fc1cccc(-c2ccccc2NCc2nc3ccccc3o2)c1 [CMP343]	< 5.00	> 900	570	–	< 4.52	322	< 4.30
Fc1ccccc1-c1ccccc1NCc1nc2ccccc2o1 [CMP353]	< 5.00	> 900	605	–	< 5.00	562	< 4.30

The next lines start with results.

pIC50 (human TRPM5)	CLint scaled at 1 μM [2] [mL/min/kg]	CLint scaled at 1 μM [3] [mL/min/kg]	pIC50 (CYP2D6; human, pH 7.4)	SMILES	pIC50 [1]	CLint scaled at 1 μM (Hepatocyte clearance) [mL/min/kg]	pIC50 (CYP2D6)
< 5.00	> 900	558	–	c1csc(-c2ccccc2NCc2nc3ccccc3o2)c1 [CMP355]	< 5.00	293	< 4.30
< 5.00	> 900	600	< 4.30	Cc1ccsc1-c1ccccc1NCc1nc2ccccc2o1 [CMP369]	< 5.00	347	–
< 4.52	900	243	–	Nc1ccccc1-c1ccccc1NCc1nc2ccccc2o1 [CMP457]	–	–	< 4.30
